According to patent US20240131022A1 (published 2024):

How the values were obtained:
μ-receptor = μ-receptor (Homo sapiens, UniProt P35372); assay: cell-based
[1] = Stability in brain homogenate; conditions: within the time frame of the study
k-receptor = k-receptor (Homo sapiens, UniProt P41145); assay: cell-based; conditions: read-out: k-receptor activation (IC50 or %)
δ-receptor = δ-receptor (Homo sapiens, UniProt P41143); assay: Functional profile in CHO transfected cells, δ-receptor inhibition; format: cell-based
δ-receptor, sequence (P41143 whole entry): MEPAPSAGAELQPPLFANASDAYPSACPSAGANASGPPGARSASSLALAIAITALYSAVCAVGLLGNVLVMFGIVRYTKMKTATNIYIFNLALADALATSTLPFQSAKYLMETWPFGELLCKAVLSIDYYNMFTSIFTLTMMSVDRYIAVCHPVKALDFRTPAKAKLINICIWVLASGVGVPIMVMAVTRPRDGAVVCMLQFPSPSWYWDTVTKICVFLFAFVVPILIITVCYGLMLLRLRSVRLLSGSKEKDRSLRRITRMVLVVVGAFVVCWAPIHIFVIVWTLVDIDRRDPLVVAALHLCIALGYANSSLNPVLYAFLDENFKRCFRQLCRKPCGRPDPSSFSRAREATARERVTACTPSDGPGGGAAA

μ-receptor, sequence (P35372 whole entry): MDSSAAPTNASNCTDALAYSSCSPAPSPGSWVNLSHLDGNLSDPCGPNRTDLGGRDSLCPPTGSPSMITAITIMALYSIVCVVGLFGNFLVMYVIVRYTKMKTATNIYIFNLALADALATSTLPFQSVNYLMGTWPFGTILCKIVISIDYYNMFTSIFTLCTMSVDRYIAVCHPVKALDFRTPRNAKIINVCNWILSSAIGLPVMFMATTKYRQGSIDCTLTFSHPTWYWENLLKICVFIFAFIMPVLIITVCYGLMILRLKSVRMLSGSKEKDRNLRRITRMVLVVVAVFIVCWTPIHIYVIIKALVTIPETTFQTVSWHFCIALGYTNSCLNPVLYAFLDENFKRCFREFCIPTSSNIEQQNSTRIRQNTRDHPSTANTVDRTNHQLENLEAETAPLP
k-receptor, sequence (P41145 whole entry): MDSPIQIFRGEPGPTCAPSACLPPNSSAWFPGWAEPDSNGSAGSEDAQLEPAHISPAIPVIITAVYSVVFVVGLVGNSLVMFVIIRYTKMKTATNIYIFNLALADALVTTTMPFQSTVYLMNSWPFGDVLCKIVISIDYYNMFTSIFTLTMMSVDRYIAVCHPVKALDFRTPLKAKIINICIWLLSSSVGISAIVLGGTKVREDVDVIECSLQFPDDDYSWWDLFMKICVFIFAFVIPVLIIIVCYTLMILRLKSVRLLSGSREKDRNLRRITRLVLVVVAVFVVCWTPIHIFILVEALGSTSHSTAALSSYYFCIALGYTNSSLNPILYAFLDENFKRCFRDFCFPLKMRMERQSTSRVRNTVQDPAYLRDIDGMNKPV

Structure (SMILES) | inhibition at 1 µM (μ-receptor; read-out: μ-receptor inhibition (IC50 or %)) [%] | intact in brain homogenate [1] [%] | activation at 1 µM (k-receptor) [%] | IC50 (δ-receptor) [µM] | IC50 (μ-receptor) [µM]
C/C=C/C=C/C(=O)Oc1ccc2c3c1OC1C(O)CCC4(O)C(C2)N(CC2CCC2)CCC314 (stereo not shown) [NB33, 3-hexadienoate derivative of nalbuphine] | 82.8 | 65±6 | 22.3 | > 10 | –
C=CCN1CCC23c4c5ccc(OC(=O)/C=C/C=C/C)c4OC2C(=O)CCC3(O)C1C5 (stereo not shown) [NX90, 3-hexadienoate derivative of naloxone] | – | 85±13 | – | > 10 | 0.137 ± 0.012
